The text below walks through data of patent publication US7750012B2, “Biaryl nitrogen-heterocycle inhibitors of LTA4H for treating inflammation” (deCODE genetics ehf, priority 2005, dated 2010).

In assay [1] the test system is ionophore-induced LTB4 production. The conditions noted are these: oral administration; cited from earlier work.
Assay [2] shares this test system. The conditions noted are these: oral administration; cited from earlier work. The source holds these as a separate data set.
The test system of another assay is colitis symptoms. The conditions noted are these: eight weeks of treatment, spontaneous colitis; cited from earlier work.
Assay [3] addresses T1, purified recombinant human LTA4 hydrolase (hLTA4H) (Homo sapiens, UniProt P09960).
T1 construct: A human LTA4 hydrolase full-length cDNA clone (NM_000895) was purchased from OriGene Technologies; own knowledge: pDEST17 adds an N-terminal 6xHis; made in house; host or cells: Escherichia coli BL21-AI
T1 sequence (P09960 1-611): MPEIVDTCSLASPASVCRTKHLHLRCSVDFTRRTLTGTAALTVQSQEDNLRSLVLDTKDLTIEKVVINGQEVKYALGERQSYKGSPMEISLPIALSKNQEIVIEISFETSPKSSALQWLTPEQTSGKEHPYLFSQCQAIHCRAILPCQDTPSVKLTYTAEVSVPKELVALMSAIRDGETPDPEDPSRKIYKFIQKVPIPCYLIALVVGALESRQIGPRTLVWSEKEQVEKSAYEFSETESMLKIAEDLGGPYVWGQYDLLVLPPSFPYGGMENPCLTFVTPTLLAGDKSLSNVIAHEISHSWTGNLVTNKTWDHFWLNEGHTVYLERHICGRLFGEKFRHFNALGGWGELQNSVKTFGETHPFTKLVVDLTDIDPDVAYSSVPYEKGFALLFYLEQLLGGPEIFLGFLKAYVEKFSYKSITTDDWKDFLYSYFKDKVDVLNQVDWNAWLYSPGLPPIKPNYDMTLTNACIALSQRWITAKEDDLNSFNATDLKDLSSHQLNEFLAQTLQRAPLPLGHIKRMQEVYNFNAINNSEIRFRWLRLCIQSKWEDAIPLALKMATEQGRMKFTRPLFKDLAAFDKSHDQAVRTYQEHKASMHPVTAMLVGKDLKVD
In words: In vitro assay testing inhibitory activity against purified recombinant human LTA4 hydrolase. The format is biochemical. The conditions noted are these: 200 nM recombinant enzyme, 2 μM LTA4, LTB4 measured by LC-MS/MS. An excerpt: (1) In Vitro Assay Testing Inhibitory Activity Against Purified Recombinant Human LTA4 Hydroase:
The gene was amplified by polmerase chain reaction and transferred via pDONR201 into the bacterial expression vector pDEST17 by recombination (both plasmids from Invitrogen, Carlsbad, Calif.). The resulting construct was transformed into Escherichia coli BL21-AI (Invitrogen), and expression was induced by chemical induction with arabinose. The recombinant enzyme was purified by chromatography on a FPLC system (Amersham Biosciences, Uppsala, Sweden) using immobilized metal affinity chromatography (Ni-NTA Superflow, Qiagen, Hilden, Germany) and anion exchange chromatography (MonoQ HR 10/10, Amersham Biosciences).
The compounds of the invention were incubated in a series of dilutions with 200 nM of recombinant enzyme in assay buffer (100 mM Tris-HCl, 100 mM NaCl, 5 mg/ml fatty-acid free BSA, 10% DMSO, pH 8.0) for 10 min at room temperature to allow binding between LTA4 hydrolase and the inhibitors. LTA4 was prepared by alkaline hydrolysis of LTA4 methyl ester (Biomol, Plymouth Meeting, Pa., or Cayman Chemicals, Ann Arbor, Mich.). A solution of 10 μg of the ester was dried under a nitrogen stream and redissolved in 60 μl of a solution of 80% aceton and 20% 0.25 M NaOH.
After incubation for 40 min at room temperature the resulting approximately 500 μM tock of LTA4 was kept at −80° C. for no more than a few days prior to use.
Immediately before the assay, LTA4 was diluted to a concentration of 10 μM in assay buffer (without DMSO) and added to the reaction mixture to a final concentration of 2 μM to initiate the enzyme reaction. […] The samples were then kept at 4° C. over night to complete protein precipitation and centrifuged for 15 min at 1800 g. LTB4 formed was measured by LC-MS/MS using LTB4-d4 as an internal standard and an external LTB4 standard (Biomol) as reference.

Counter-ions that a name gives are not always drawn. A value given as a limit tells only on which side of the number the result lay.

Turning to `CN(CCCOc1ccc(Cc2ccccc2)cc1)CCC(=O)O.Cl` [SC57461], the “inhibition of ionophore-induced LTB4 production in mouse blood ex vivo” value in assay [1] was “inhibition of ionophore-induced LTB4 production”. Further, the “inhibition of ionophore-induced LTB4 production in rat peritoneum in vivo” value in assay [2] is given as “inhibition of ionophore-induced LTB4 production”. The “colitis symptoms in a primate model” value with colitis symptoms was “significantly improved colitis symptoms”. For `O=C(O)CCN1CCN(c2ccc(Oc3ccc(-c4ccsc4)cc3)cc2)CC1` [Example 16, 3-{4[4-(4-Thiophen-3-yl-phenoxy)-phenyl]-piperazin-1-yl}-propionic acid sodium salt], in assay [3], the IC50 is < 5 µM. The same measure, in the same setting: next, `O=C(O)CCN1CCN(c2ccc(Cc3ccccc3)cc2)CC1` [Example 7, 3-[4-(4-Benzyl-phenyl)-piperazin-1-yl]-propionic acid sodium salt]: < 5 µM; `COc1ccc(Oc2ccc(N3CCNCC3)cc2)cc1` [Example 17, 1-[4-(4-Methoxy-phenoxy)-phenyl]-piperazine]: 5 to 20 µM; `CC(=O)N1CCN(c2ccc(Oc3ccccc3)cc2)CC1` [Example 21, 1-[4-(4-Phenoxy-phenyl)-piperazin-1-yl]-ethanone]: < 5 µM. Turning to `O=C(O)CCCN1CCN(c2ccc(Nc3ccccc3)cc2)CC1` [Example 3, 4-[4-(4-phenylamino-phenyl)-piperazin-1-yl]-butyric acid sodium salt], the IC50 in assay [3] lay in the range of 5 to 20 µM. The same measure, in the same setting: next, `NC1CCN(c2ccc(Oc3ccccc3)cc2)CC1` [Example 12, 1-(4-Phenoxy-phenyl)-piperidin-4-ylamine hydrochloride]: 5 to 20 µM; `Ic1ccc(Oc2ccc(N3CCOCC3)cc2)cc1` [Example 24, 4-[4-(4-Iodo-phenoxy)-phenyl]-morpholine]: < 5 µM. Regarding `Clc1ccc(-c2ccc(Oc3ccc(N4CCNCC4)cc3)cc2)s1` [Example 26, hydrochloride], in assay [3], the IC50 was 5 to 20 µM. As to `FC(F)(F)c1ccc(Oc2ccc(N3CCNCC3)cc2)cc1` [Example 20, 1-[4-(4-Trifluoromethyl-phenoxy)-phenyl]-piperazine], the IC50 in assay [3] was < 5 µM. Take `Ic1ccc(Oc2ccc(N3CCNCC3)cc2)cc1` [Example 14, 1-[4-(4-Iodo-phenoxy)-phenyl]-piperazine hydrochloride]: the IC50 in assay [3] was < 5 µM. On the same count and under the same terms, under `COC(=O)CCCN1CCN(c2ccc(Cc3ccccc3)cc2)CC1` [Example 5, 4-[4-(4-Benzyl-phenyl)-piperazin-1-yl]-butyric acid methyl ester] stands < 5 µM; under `c1cc(-c2ccc(Oc3ccc(N4CCOCC4)cc3)cc2)cs1` [Example 25, 4-[4-(4-Thiophen-3-yl-phenoxy)-phenyl]-morpholine], < 5 µM. On the same count and under the same terms, under `c1ccc(Cc2ccc(N3CCNCC3)cc2)cc1` [Example 4, 1-(4-Benzyl-phenyl)-piperazine hydrochloride] stands < 5 µM. Still for that read-out and setting: next, `O=C(O)CCCN1CCN(c2ccc(Oc3ccc(I)cc3)cc2)CC1` [Example 15, 4-{4-[4-(4-Iodo-phenoxy)-phenyl]-piperazin-1-yl]-butyric acid sodium salt]: < 5 µM; `Cc1ccc(Oc2ccc(N3CCNCC3)cc2)cc1` [Example 18, 1-(4-p-Tolyloxy-phenyl]-piperazine]: < 5 µM.

`O=C(O)CCCN1CCN(c2ccc(Cc3ccccc3)cc2)CC1` [Example 6, 4-[4-(4-Benzyl-phenyl)-piperazin-1-yl]-butyric acid sodium salt]: the IC50 in assay [3] was < 5 µM.

With `c1cc(-c2ccc(Oc3ccc(N4CCNCC4)cc3)cc2)cs1` [Example 23, 1-[4-(4-Thiophen-3yl-phenoxy)-phenyl]-piperazine hydrochloride], the IC50 in assay [3] is < 5 µM.
